Laboratory results: ChEMBL document CHEMBL6071202, “Design, Synthesis, and Biological Evaluation of 3-Amino-pyrazine-2-carboxamide Derivatives as Novel FGFR Inhibitors” (ACS Med Chem Lett, 2024)

How the values were obtained:
[1] = molecular target: Fibroblast growth factor receptor 2 (Homo sapiens, UniProt P21802); experiment: Inhibition of FGFR2 (unknown origin)
[2] = molecular target: T1, Receptor-type tyrosine-protein kinase FLT3 (Homo sapiens, UniProt P36888); experiment: Inhibition of FLT3 (unknown origin) by immobilized metal ion affinity-based fluorescence polarization
T1 sequence (P36888 whole entry): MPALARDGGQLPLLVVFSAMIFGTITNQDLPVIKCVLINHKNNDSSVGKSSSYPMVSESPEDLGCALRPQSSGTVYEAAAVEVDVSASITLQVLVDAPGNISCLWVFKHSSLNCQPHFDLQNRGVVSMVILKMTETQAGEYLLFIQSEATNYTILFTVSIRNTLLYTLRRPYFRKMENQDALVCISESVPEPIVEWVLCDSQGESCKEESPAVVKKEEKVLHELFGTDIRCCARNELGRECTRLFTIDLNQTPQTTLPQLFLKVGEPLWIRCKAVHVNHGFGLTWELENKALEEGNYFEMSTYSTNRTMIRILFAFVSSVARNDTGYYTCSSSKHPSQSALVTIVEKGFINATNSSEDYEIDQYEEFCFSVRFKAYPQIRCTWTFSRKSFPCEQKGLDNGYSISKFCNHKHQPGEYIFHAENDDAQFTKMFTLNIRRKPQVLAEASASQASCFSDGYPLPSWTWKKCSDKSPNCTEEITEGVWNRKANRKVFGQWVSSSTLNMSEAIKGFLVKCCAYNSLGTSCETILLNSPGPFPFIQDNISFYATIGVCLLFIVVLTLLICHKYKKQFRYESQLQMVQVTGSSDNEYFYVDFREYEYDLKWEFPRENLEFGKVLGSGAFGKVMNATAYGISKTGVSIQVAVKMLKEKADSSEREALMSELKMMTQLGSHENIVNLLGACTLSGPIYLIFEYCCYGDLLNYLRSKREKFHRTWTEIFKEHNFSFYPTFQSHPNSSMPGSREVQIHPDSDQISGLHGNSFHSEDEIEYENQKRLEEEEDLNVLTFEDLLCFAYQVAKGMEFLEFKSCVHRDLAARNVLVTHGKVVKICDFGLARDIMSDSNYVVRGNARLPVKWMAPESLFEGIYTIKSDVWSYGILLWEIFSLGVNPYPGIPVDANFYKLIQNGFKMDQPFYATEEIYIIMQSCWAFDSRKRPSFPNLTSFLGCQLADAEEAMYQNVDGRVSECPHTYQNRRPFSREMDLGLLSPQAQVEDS

Sequence of Fibroblast growth factor receptor 2 (P21802 whole entry): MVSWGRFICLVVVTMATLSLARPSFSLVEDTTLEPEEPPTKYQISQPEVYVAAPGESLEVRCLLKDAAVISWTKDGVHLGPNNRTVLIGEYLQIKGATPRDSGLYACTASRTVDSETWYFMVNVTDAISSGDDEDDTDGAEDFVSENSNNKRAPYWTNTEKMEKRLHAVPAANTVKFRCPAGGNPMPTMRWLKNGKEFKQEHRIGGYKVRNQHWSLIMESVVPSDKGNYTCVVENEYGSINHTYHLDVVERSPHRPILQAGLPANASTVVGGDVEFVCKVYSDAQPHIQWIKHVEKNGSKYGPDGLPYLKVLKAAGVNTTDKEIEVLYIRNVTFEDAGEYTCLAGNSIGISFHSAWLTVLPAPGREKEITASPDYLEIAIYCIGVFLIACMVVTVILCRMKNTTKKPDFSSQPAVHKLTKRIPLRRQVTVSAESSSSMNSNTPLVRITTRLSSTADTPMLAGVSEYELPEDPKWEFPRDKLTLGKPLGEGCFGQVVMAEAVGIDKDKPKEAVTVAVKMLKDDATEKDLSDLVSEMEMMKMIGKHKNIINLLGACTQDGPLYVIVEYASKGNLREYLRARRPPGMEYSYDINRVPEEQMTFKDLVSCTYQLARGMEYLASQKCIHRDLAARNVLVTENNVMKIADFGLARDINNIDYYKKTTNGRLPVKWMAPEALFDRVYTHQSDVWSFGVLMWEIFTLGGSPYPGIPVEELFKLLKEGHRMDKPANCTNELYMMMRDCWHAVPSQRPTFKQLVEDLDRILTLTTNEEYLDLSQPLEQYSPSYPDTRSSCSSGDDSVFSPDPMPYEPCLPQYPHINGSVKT

- IC50 [1]: 120 nM
- IC50 [2]: 6 nM
Structure (SMILES): Nc1ncc(-c2ccncc2)nc1Nc1ccc2[nH]ccc2c1 [AKN-028]
